Assay [1] relates to PAF-induced platelet aggregation. Put plainly: Platelet Aggregation Assay (in vitro PAF antagonism, human platelet-rich plasma). The following applies: 37° C., PAF 1-5×10^-8 M. It counts as cell-based. On the procedure:
Platelet Aggregation Assay
Platelet-activating factor (PAF) causes aggregation of platelets by a receptor-mediated mechanism. Therefore, PAF-induced platelet aggregation provides a simple and convenient assay to screen compounds for PAF antagonism.
Blood was centrifuged at 110×g for 15 min. and the supernatant platelet-rich plasma (PRP) carefully transferred into a polypropylene tube. Platelet-poor-plasma (PPP) was prepared by centrifuging PRP at 12,000×g for 2 min. PRP was used within 3 hr. of drawing the blood.
PAF was dissolved in chloroform:methanol (1:1, v/v) at a concentration of 2 mg/ml and stored at -70° C. An aliquot of this solution was transferred to a polypropylene tube and dried under a flow of nitrogen gas. […] The solution was sonicated for 5 min. This stock solution was further diluted to appropriate concentrations in Hepes-saline-BSA buffer. Collagen and adenosine diphosphate (ADP) were purchased as solutions. Test compounds were initially dissolved in dimethyl sulfoxide (DMSO) at a concentration of 50 mM and then further diluted in Hepes-saline-BSA buffer to achieve appropriate concentrations.
When an aggregating agent such as PAF is added to PRP, platelets aggregate. An aggregometer quantifies this aggregation by measuring and comparing light (infra-red) transmission through PPP and PRP. Aggregation assays were performed using a dual-channel aggregometer. PRP (0.45 ml) in aggregometer cuvettes was continually stirred (37° C.). Solutions (50 μL) of test compounds or vehicle were added to the PRP and, after incubation for 2 min., 10-15 μl aliquots of PAF solution were added to achieve a final concentration of 1-5×10^-8 M. In different experiments the aggregatory response was kept within a set limit by varying the concentration of PAF. Incubations were continued until the increase in light transmission reached a maximum (usually 2 min.). This increase in light transmission reflecting platelet aggregation is transmitted to a computer. The computer calculates the slope of transmission change, thus providing the rate of aggregation. Values for inhibition were calculated by comparing rates of aggregation obtained in the absence and the presence of the compound. For each experiment, a standard PAF antagonist such as 8-chloro-6,11-dihydro-11 -(1-acetyl-4-piperidylidene)-5H-benzo[5,6]cyclohepta[1,2-b]pyridine was used as a positive control. […]

For assay [2], the system named is histamine-induced bronchospasm. The assay can be described thus: Histamine-induced bronchospasm in guinea pigs (in vivo). Also on record: species or system guinea pig (male Hartley). The following applies: oral, histamine 10 ug/kg i.v. On the procedure: (§1) B. In Vivo Studies: Agonist-Induced Responses
(§2) Spasmogen-Induced Bronchospasm in Guinea Pigs
(§3) Male Hartley guinea pigs (450-550 g) were obtained from Charles River Breeding Laboratories. The animals were fasted overnight and the following day were anesthetized with 0.9 ml/kg i.p. of dilaurethane (containing 0.1 g/ml diallylbarbituric acid, 0.4 g/ml ethylurea and 0.4 g/ml urethane). The left jugular vein was cannulated for the administration of compounds. The trachea was cannulated and the animals were ventilated by a rodent respirator at 55 strokes/min. with a stroke volume of 4 ml. A side arm to the tracheal cannula was connected to a pressure transducer to obtain a continuous measure of inflation pressure. Bronchoconstriction was measured as the percent increase in inflation pressure that peaked within 5 min. after challenge with spasmogen. […] Each animal was challenged with only a single spasmogen. The effect of a compound on the bronchospasm is expressed as a percent inhibition of the increase in inflation pressure compared to the increase in a control group. […] The first two compounds in TABLE II are known compounds and are included for comparison purposes.

Another assay relates to PAF-induced bronchospasm. The assay can be described thus: PAF-induced bronchospasm in guinea pigs (in vivo). Also on record: species or system guinea pig (male Hartley). The following applies: Cavia porcellus, read-out: Agonist Bronchospasm (in vivo) PAF % Inhibition; for inhibition in vivo at 3 mg/kg: oral, PAF 0.4 μg/kg i.v. On the procedure: as §1, §2, §3

The text below walks through data of patent publication US5432175A, “Pyridine and pyridine N-oxide derivatives of diaryl methyl piperidines or piperazines, and compositions and methods of use thereof” (Schering Corporation, priority 1993, dated 1995).

A value given as a limit tells only on which side of the number the result lay.

With `O=C(c1cc[n+]([O-])cc1)N1CCC(=C(c2ccc(Cl)cc2)c2nccs2)CC1`, the IC50 in assay [1] is 1000 nM.

Turning to `O=C(c1cc[n+]([O-])cc1)N1CCC(=C(c2ccccc2)c2ccccc2)CC1`, the “Agonist Bronchospasm (in vivo) Histamine % Inhibition” value in assay [2] (dose 3 mg/kg) is listed as 0%. Also, the inhibition in vivo at 3 mg/kg in the assay with PAF-induced bronchospasm came to 44%. In assay [1], this molecule came in with an IC50 of 3000 nM.

In assay [1], `Cn1ccnc1C(=C1CCN(C(=O)c2cc[n+]([O-])cc2)CC1)c1ccc(Cl)cc1` yielded an IC50 of 2000 nM.

In assay [1], `[O-][n+]1ccc(CN2CCN(C(c3ccc(Cl)cc3)c3nccs3)CC2)cc1` (centres unmarked) had an IC50 of 12000 nM.

`O=C(c1cc[n+]([O-])cc1)N1CCN(C(c2ccc(Cl)cc2)c2cccs2)CC1` (centres unmarked): in the assay with PAF-induced bronchospasm, the inhibition in vivo at 3 mg/kg is 22%. 200 nM corresponded to half-maximal inhibition in assay [1] (IC50).

In assay [1], `[O-][n+]1ccc(CN2CCC(=C(c3ccc(Cl)cc3)c3nccs3)CC2)cc1` returned an IC50 of 35000 nM.

Turning to `O=C(c1cc[n+]([O-])cc1)N1CCC(=C(c2ccc(Cl)cc2)c2ccccn2)CC1`, in assay [2] (dose 3 mg/kg), the “Agonist Bronchospasm (in vivo) Histamine % Inhibition” value worked out at 0%. Besides, in the assay on PAF-induced bronchospasm, the inhibition in vivo at 3 mg/kg was 100%. The molecule further displayed an IC50 in assay [1] of 500 nM.

`O=C(c1cc[n+]([O-])cc1)N1CCC(=C(c2ccc(Cl)cc2)c2cccs2)CC1`: half-maximal inhibition in assay [1] (IC50) required 500 nM.

Turning to `CCOC(=O)N1CCC(=C2c3ccc(Cl)cc3CCc3cccnc32)CC1` [reference compound], the “Agonist Bronchospasm (in vivo) Histamine % Inhibition” value in assay [2] (dose 1 mg/kg) is reported as above 50%. In the assay with PAF-induced bronchospasm (po), the inhibition in vivo at 10 mg/kg was below 50%.

Take `[O-][n+]1ccc(CN2CCC(=C(c3ccc(Cl)cc3)c3ccccn3)CC2)cc1`: the “Agonist Bronchospasm (in vivo) Histamine % Inhibition” value in assay [2] (dose 3 mg/kg) is on record as 95%. Besides, the inhibition in vivo at 3 mg/kg with PAF-induced bronchospasm came out at 18%. In addition, half-maximal inhibition in assay [1] (IC50) required 12000 nM.

On to `O=C(c1cc[n+]([O-])cc1)N1CCN(C(c2ccccc2)c2ccc(Cl)cc2)CC1` (centres unmarked), for which the “Agonist Bronchospasm (in vivo) Histamine % Inhibition” value in assay [2] (dose 3 mg/kg) is given as 30%. Also, the inhibition in vivo at 3 mg/kg in the assay on PAF-induced bronchospasm came to 99%. Moreover, in assay [1], the IC50 turned out to be 1000 nM.

Molecule `Cn1ccnc1C(=C1CCN(Cc2cc[n+]([O-])cc2)CC1)c1ccc(Cl)cc1` came in with an IC50 in assay [1] of 20000 nM.

As to `[O-][n+]1ccc(CN2CCN(C(c3ccc(Cl)cc3)c3cccs3)CC2)cc1` (centres unmarked), the IC50 in assay [1] amounted to 15000 nM.

Take `CC(=O)N1CCC(=C2c3ccc(Cl)cc3CCc3cccnc32)CC1` [reference compound]: the “Agonist Bronchospasm (in vivo) Histamine % Inhibition” value in assay [2] (dose 3 mg/kg) was determined as 48%. Further, the inhibition in vivo at 3 mg/kg in the assay with PAF-induced bronchospasm is 4%. In addition, 610 nM corresponded to half-maximal inhibition in assay [1] (IC50).

Turning to `O=C(c1cc[n+]([O-])cc1)N1CCN(C(c2ccc(Cl)cc2)c2nccs2)CC1` (centres unmarked), in assay [2] (dose 10 mg/kg), the “Agonist Bronchospasm (in vivo) Histamine % Inhibition” value is 25%. The inhibition in vivo at 3 mg/kg with PAF-induced bronchospasm turned out to be 73%. The same molecule returned a half-inhibitory concentration (IC50) in assay [1] of 1000 nM.
